Laboratory results: doi:10.1101/2025.10.06.680810v1 (biorxiv, 2025)

Biological target: NLRP3 (purified) (Homo sapiens, UniProt Q96P20, K138A/K142A/R137C)
Assay: fluorescence polarization displacement
Assay type: binding

Chain of NLRP3 (purified) (Q96P20 136-1034 R137C/K138A/K142A): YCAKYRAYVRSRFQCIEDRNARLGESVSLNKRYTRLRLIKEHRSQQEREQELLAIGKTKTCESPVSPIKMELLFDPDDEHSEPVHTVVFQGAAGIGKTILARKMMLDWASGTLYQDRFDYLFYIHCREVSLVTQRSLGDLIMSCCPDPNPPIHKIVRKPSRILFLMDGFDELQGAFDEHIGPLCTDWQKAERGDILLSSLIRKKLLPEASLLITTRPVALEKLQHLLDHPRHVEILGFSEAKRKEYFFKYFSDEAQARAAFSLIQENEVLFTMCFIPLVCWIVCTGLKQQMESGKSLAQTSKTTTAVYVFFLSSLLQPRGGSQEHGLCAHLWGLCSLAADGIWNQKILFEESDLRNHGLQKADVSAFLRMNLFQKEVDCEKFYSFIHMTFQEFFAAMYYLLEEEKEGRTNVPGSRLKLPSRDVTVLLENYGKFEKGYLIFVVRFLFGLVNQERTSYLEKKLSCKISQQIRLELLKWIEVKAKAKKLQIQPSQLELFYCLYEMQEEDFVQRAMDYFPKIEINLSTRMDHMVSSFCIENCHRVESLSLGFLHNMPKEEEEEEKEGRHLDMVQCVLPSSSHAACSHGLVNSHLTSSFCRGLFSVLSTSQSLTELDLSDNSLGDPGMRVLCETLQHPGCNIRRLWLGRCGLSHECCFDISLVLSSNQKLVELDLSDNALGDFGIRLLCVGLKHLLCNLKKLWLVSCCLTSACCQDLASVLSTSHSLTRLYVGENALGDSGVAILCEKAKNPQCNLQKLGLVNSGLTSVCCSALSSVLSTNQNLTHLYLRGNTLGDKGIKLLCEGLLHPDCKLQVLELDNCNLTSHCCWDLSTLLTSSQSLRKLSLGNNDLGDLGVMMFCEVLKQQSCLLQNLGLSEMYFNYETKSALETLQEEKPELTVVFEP

O=C(CN1C[C@@H](C(F)(F)F)c2cc(I)ccc2C1=O)Nc1ncc(F)cn1 [TN-783, N-(5-fluoropyrimidin-2-yl)-2-[(4s)-6-iodo-1-oxo-4-(trifluoromethyl)-3,4-dihydroisoquinolin-2-yl]acetamide]
IC50: 19.3 ± 2.2 nM
